Data on twelve molecules can be found in US9896445B2, “Heterocyclic inhibitors of ERK1 and ERK2 and their use in the treatment of cancer” (Asana Biosciences, LLC, priority 2015, dated 2018).

Series [1] has as its system human lung carcinoma xenograft model (A549; harboring KRAS mutation). In words: A549 human lung carcinoma xenograft model, tumor growth inhibition. Format: in vivo, mice. The conditions noted are these: 50 mg/kg BID orally for 20 days. As to the method:
(§1) In Vivo Studies in Tumor Xenograft Models
(§2) Tumor Cell Implantation and Randomization of Animals
(§3) Foxn1 nu/nu strain of female mice (obtained from Charles River Laboratories, USA), 8-10 weeks of age, body weight range 23-25 g, were used for the tumor xenograft efficacy studies. Human cancer cell lines (such as melanoma A375, colorectal HT29, pancreatic BxPC3, colorectal HCT116, and lung A549) were first grown in vitro, and then about five million (5×10^6) of these cells in 100 μL of serum free medium were mixed with an equal amount of matrigel, and the entire mixture was injected subcutaneously at the right flank region of mice. The tumors were measured with Vernier calipers periodically after the first week of injection. When the tumor volume reached 120-150 mm^3 (about 3-4 weeks after injection) the animals were randomized into different groups so that their tumor volume was approximately the same in all groups.
(§4) Determination of In Vivo Efficacy of Tumor Growth Inhibition
(§5) For PO dosing, the compounds were prepared in a formulation containing 0.5% Methyl cellulose and 0.01% Tween 80. For IV, SC, or IP dosing, the compounds were prepared in 6% solutol-ethanol (1:1), 6% DMSO and 88% saline. Animals were dosed with compounds prepared in specific formulations via PO, IP or SC route either QD or BID at the required doses. Tumors size and body weights were measured twice or thrice in a week. Tumors were harvested at the end of the study after euthanizing the animals according to approved protocols. […]
(§6) Changes in tumor volume (Δ volumes) for each treated (T) and control (C) group were calculated by subtracting the mean tumor volume on the first day of treatment (starting day) from the mean tumor volume on the specified observation day. […]
(§7) Percentage tumor growth inhibition was calculated as [100−% T/C]. Percentage body weight change was calculated as [(Body weight on specified observation day−Body weight on starting day)/Body weight on starting day]×100.
On the technique in general: Xenograft models place foreign cells or tissue in a host animal.

In series [2] the target is T1, ERK1 (Homo sapiens, UniProt P27361).
T1 construct: purchased Jubilant Biosys
In words: ERK1 HTRF (biochemical) assay. The conditions noted are these: HTRF. The method, then:
ERK1 and ERK2 HTRF (Biochemical) Assays
These assays employed a homogeneous time resolved fluorescence (HTRF) technique. […] The plate was incubated at room temperature for 60 min with shaking. […] The IC50 values (half maximal inhibitory concentration values) were subsequently determined using a sigmoidal dose-response curve (variable slope) in GraphPad Prism® 5 software.
On the technique in general: Time-resolved FRET reads energy transfer from a long-lived donor to a nearby acceptor.

In series [3] the target is T2, ERK2 (Homo sapiens, UniProt P28482).
T2 construct: purchased Jubilant Biosys
The series is described as follows: ERK2 HTRF (biochemical) assay. As to conditions: HTRF. An outline of the steps:
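Compounds were tested as half-log dilutions from 0.0005 to 10 uM in Tris pH 7.5/MgCl2 buffer, with a substrate mix of 1 uM biotin-MBP peptide and 24 uM ATP and an enzyme mix of 25 nM ERK2. Reaction ran 60 min at room temperature. Phospho-MBP was detected by HTRF (Eu-anti-phospho-MBP/SA-APC, 665/620 nm), and IC50 was fitted with a variable-slope sigmoidal curve.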

The test system of series [4] is HCT116 (colorectal carcinoma, K Ras G13D) cells. In words: Cell proliferation (Alamar Blue) assay, HCT116. It counts as cell-based, human. As to conditions: Homo sapiens, HCT-116, HCT116 cells. The method, then: Cell Proliferation (Alamar Blue) Assay
HT-29 (colorectal carcinoma, B-RafV600E), HCT116 (colorectal carcinoma, K Ras G13D), A375 (melanoma, B-RafV600E) and SK-Mel2 (melanoma, NRAS Q61R) cells (obtained from ATCC, USA) were seeded (5000 cells/well) in 96-well tissue culture plate and incubated at 37° C./5% CO2 for 16-24 hours. The cells were then treated with compounds, at concentrations typically from 0.0005 to 10 uM prepared in 3-fold serial dilutions. The plates were then incubated for 72 h at 37° C./5% CO2 in a moist environment. Then Alamar Blue™ reagent (final concentration 1×) was added to each well and incubated for 1-3 h at 37° C./5% CO2. The plates were read on fluorescence reader at 540 nm excitation and 590 nm emission wavelengths. The IC50 values were subsequently determined using a sigmoidal dose-response curve (variable slope) using GraphPad Prism® 5 software.
A general note: Resazurin is reduced to fluorescent resorufin, in cell work by metabolically active cells.

In series [5] the test system is phospho-RSK (the downstream target of ERK1/2). In words: Pharmacodynamic assay, phospho-RSK in A375 tumor samples. Format: in vivo, mice. As to conditions: A375 tumor samples harvested at 1 h after dosing at 50 mg/kg PO, compared to vehicle control. As to the method:
as §3, §5

In series [6] the test system is human melanoma xenograft model (A375) harboring B-RAF V600E mutation. In words: A375 human melanoma xenograft model, tumor growth inhibition. It counts as in vivo, mice. The method, then: as §1, §2, §3, §4, §5, §6, §7
The test system of series [7] is human colon cancer xenograft model (HT-29) harboring B-RAF V600E mutation. In words: HT-29 human colon cancer xenograft model, tumor growth inhibition. Format: in vivo, mice. The conditions noted are these: HT-29 xenograft. The method, then: as §1, §2
as §3, with “When the tumor volume reached 120-150 mm^3 (about 3-4 weeks after injection) the animals were randomized into different groups so that their tumor volume was approximately the same in all groups.” left out
(§8) For PO dosing, the compounds were prepared in a formulation containing 0.5% Methyl cellulose and 0.01% Tween 80. […] Tumors size and body weights were measured twice or thrice in a week. […]
as §6, §7

Series [8] relates to human pancreatic carcinoma xenograft model, BxPC3 (wild type KRAS). In words: BxPC3 human pancreatic carcinoma xenograft model, tumor growth inhibition. Format: in vivo, mice. As to the method:
as §1, §2
as §3, with “When the tumor volume reached 120-150 mm^3 (about 3-4 weeks after injection) the animals were randomized into different groups so that their tumor volume was approximately the same in all groups.” left out
as §8, §6, §7

Series [9] relates to human colon cancer xenograft model (HCT116; harboring KRAS mutation). In words: HCT116 human colon cancer xenograft model, tumor growth inhibition. It counts as in vivo, mice. The conditions noted are these: 50 mg/kg BID orally for 24 days. As to the method: as §1, §2
as §3, with “When the tumor volume reached 120-150 mm^3 (about 3-4 weeks after injection) the animals were randomized into different groups so that their tumor volume was approximately the same in all groups.” left out
as §8, §6, §7

The test system of series [10] is phospho-RSK1(S380). In words: Phospho-RSK1(S380) ELISA assay in HT-29 cells. Format: cell-based, human. The conditions noted are these: Homo sapiens, HT-29, HT29 cells; read-out: Mechanist Cell Assay RSK1 Phos HT29 IC50. As to the method:
Phospho-RSK1(S380) ELISA Assay
HT-29 cells (colorectal carcinoma, B-RafV600E); obtained from ATCC, USA) were seeded (60,000 cells/well) in a 96-well plate and incubated at 37° C./5% CO2 overnight and then treated with desired compound dilutions for 2 h. Medium was removed and cells were rinsed once with ice-cold 1×PBS, then 0.070 mL ice-cold 1× cell lysis buffer containing 1 mM PMSF was added to each well and the plate was incubated on a shaker for 2 h and 30 min at 4° C. The plate was then centrifuged for 20 min (×4000 rpm) at 4° C. and the supernatant was transferred to a new plate. Cell lysates were diluted with sample diluent at a ratio of 1:1. The ELISA was then carried out following the manufacturer's protocol (PathScan® phospho-RSK1(Ser380) Sandwich ELISA Kit, Cell Signaling Technologies). The plate was read at 450 nm within 30 min after adding STOP solution. The IC50 values were subsequently determined using a sigmoidal dose-response curve (variable slope) in GraphPad Prism® 5 software.

Where [11] appears, read: 50 mg/kg BID orally for 19 days.

T1 sequence (P27361 whole entry): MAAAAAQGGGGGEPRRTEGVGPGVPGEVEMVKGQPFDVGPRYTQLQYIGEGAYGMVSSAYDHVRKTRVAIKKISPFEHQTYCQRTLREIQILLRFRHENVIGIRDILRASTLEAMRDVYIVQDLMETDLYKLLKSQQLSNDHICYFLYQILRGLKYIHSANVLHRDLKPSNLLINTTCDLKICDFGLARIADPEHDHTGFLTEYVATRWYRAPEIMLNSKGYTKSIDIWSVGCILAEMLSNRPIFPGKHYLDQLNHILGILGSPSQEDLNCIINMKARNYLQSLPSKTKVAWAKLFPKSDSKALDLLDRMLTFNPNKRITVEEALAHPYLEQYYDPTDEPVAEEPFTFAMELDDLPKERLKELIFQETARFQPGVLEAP
T2 sequence (P28482 whole entry): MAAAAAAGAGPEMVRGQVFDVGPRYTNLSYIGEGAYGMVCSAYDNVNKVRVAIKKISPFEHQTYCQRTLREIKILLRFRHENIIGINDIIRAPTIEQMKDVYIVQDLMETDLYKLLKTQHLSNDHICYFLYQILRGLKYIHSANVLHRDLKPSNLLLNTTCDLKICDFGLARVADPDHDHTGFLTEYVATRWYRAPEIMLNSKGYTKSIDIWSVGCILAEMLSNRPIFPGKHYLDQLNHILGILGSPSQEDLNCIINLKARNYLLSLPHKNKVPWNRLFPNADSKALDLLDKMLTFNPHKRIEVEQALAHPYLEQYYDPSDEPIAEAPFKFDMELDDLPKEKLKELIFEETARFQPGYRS

`Cc1cnc(NC2CCOCC2)nc1-n1cnc(C(=O)N[C@H](CN)c2cccc(Cl)c2)c1.O=S(=O)(O)c1ccccc1` [Example 300, (S)-N-(2-amino-1-(3-chlorophenyl)-ethyl)-1-(5-methyl-2-((tetrahydro-2H-pyran-4-yl)amino)-pyrimidin-4-yl)-1H-imidazole-4-carboxamide benzenesulfonic acid salt]: in series [1], the body weight loss result is “no significant body weight loss”.
For the molecule `Cc1cnc(N[C@H]2CCOC2)nc1-n1cnc(C(=O)N[C@H](CO)c2cccc(Cl)c2)c1` [Compound 192, N-((S)-1-(3-Chlorophenyl)-2-hydroxyethyl)-1-(5-methyl-2-(((S)-tetra-hydrofuran-3-yl)amino)pyrimidin-4-yl)-1H-imidazole-4-carboxamide], the melting point – broadly, the temperature of the solid-liquid transition – was determined as 117 °C. Moreover, the IC50 – broadly, the concentration at which inhibition is half-maximal – in [2] was less than 50 nM. Further, the IC50 in series [3] was not above 50 nM.
Regarding `Cc1cnc(NC2CCOCC2)nc1-n1cnc(C(=O)N[C@H](CN)c2cc(F)cc(Cl)c2)c1.O=S(=O)(O)c1ccccc1` [Example 302, (S)-N-(2-amino-1-(3-chloro-5-fluoro-phenyl)ethyl)-1-(5-methyl-2-((tetrahydro-2H-pyran-4-yl)amino)-pyrimidin-4-yl)-1H-imidazole-4-carboxamide benzenesulfonic acid salt], the body weight loss result in series [1] was “no significant body weight loss”.
For the molecule `Cc1cnc(Nc2ccc(F)cc2)cc1-n1cnc(C(=O)NC(CN)c2ccccc2)c1` (single isomer, unassigned) [Compound 227, N-(2-amino-1-phenylethyl)-1-(2-((4-fluorophenyl)-amino)-5-methyl-pyridin-4-yl)-1H-imidazole-4-carboxamide], the results for the IC50 in [2], in series [3] and in [4] were less than 50 nM, not above 50 nM and more than 2500 nM, respectively.
`Cc1cnc(NC2CCOCC2)nc1-n1cnc(C(=O)N[C@H](CO)c2cccc(Cl)c2)c1` [Compound 211, (S)-N-(1-(3-chlorophenyl)-2-hydroxyethyl)-1-(5-methyl-2-((tetrahydro-2H-pyran-4-yl)amino)pyrimidin-4-yl)-1H-imidazole-4-carboxamide] showed a melting point of 145 °C. Moreover, the IC50 in series [2] is less than 50 nM. For the same molecule, the “inhibition of phospho-RSK” value in [5] is approximately 84%. This molecule showed an IC50 in series [3] not above 50 nM. Also, the body weight loss entry in series [6] (50 mg/kg BID orally for 17 days) was “no significant body weight loss”.
As to `Cc1cnc(NC2CCOCC2)nc1-n1cnc(C(=O)NC(CO)c2cccc(Cl)c2)c1` (stereo not shown) [Compound 201, N-(1-(3-chlorophenyl)-2-hydroxyethyl)-1-(5-methyl-2-((tetrahydro-2H-pyran-4-yl)amino)pyrimidin-4-yl)-1H-imidazole-4-carboxamide], the values for the 50% inhibitory concentration (IC50) in [2] and in [3] were less than 50 nM and not above 50 nM, respectively. Further, the “inhibition of phospho-RSK” value in series [5] is on record as “about 66%”. Further, the body weight loss entry in [7] (50 mg/kg BID orally for 20 days) and in series [8] (50 mg/kg BID orally for 25 days) was “no significant body weight loss” in each case. Further, the tumor growth inhibition result in series [7] (dosed orally at 50 mg/kg BID for 20 days) is recorded as “approximately 50%”; in [8] (dosed orally at 50 mg/kg BID for 25 days), “about 63%”.
In turn, `Cc1cnc(Nc2ccc(F)cc2)cc1-n1ccc(C(=O)NC(CN)c2cccc(Cl)c2)c1` (stereo not shown) [Compound 159, N-(2-Amino-1-(3-chlorophenyl)ethyl)-1-(2-((4-fluorophenyl)amino)-5-methylpyridin-4-yl)-1H-pyrrole-3-carboxamide] displayed a melting point of 118.1 °C. For the same molecule, the IC50 in series [2] is 50 to 100 nM. The molecule also registered an IC50 in series [3] not above 50 nM.
On to `Cc1cnc(NC2CC(F)(F)C2)nc1-n1cnc(C(=O)N[C@H](CN)c2cccc(Cl)c2)c1.O=S(=O)(O)c1ccccc1` [Example 304, (S)-N-(2-amino-1-(3-chlorophenyl)-ethyl)-1-(2-((3,3-difluorocyclobutyl)amino)-5-methyl-pyrimidin-4-yl)-1H-imidazole-4-carboxamide benzenesulfonic acid salt], for which the body weight loss result in series [1] is “no significant body weight loss”.
On to `Cc1cnc(NC2CCOCC2)nc1-n1cnc(C(=O)N[C@H](CN)c2cccc(Cl)c2)c1` (single isomer, unassigned) [Compound 225a], for which the IC50 is less than 50 nM in [2] and not above 50 nM in series [3]. For the same molecule, the body weight loss result in series [6] (setting [11]) and in [9] was “no significant body weight loss” each time.
`Cc1cnc(Nc2ccc3c(c2)OCO3)nc1-n1cc(NC(=O)N[C@H](CO)c2ccccc2)cn1` [Compound 55, (S)-1-(1-(2-(benzo[d][1,3]dioxol-5-ylamino)-5-methylpyrimidin-4-yl)-1H-pyrazol-4-yl)-3-(2-hydroxy-1-phenylethyl)urea] displayed a melting point of 208.3 °C. In series [2], this molecule yielded an IC50 of 50 to 100 nM. In series [3], this molecule gave an IC50 of 50 to 100 nM.
For the molecule `Cc1cnc(NC2CCOCC2)nc1-n1cnc(C(=O)N[C@]2(c3cccc(Cl)c3)C[C@H](O)C2)c1` [Compound 245, N-((1s,3s)-1-(3-chlorophenyl)-3-hydroxycyclobutyl)-1-(5-methyl-2-((tetrahydro-2H-4-yl)amino)pyrimidin-4-yl)-1H-imidazole-4-carboxamide], the IC50 in [2] was less than 50 nM; in series [10], 250 to 500 nM; in series [3] it was not above 50 nM; in [4], 500 to 2500 nM.
On to `Cc1cnc(NC2CC(F)(F)C2)nc1-n1cnc(C(=O)N[C@H](CN)c2cccc(Cl)c2)c1` [Example 259, (S)-N-(2-amino-1-(3-chlorophenyl)-ethyl)-1-(2-((3,3-difluorocyclobutyl)amino)-5-methyl-pyrimidin-4-yl)-1H-imidazole-4-carboxamide], for which the body weight loss entry in series [6] (setting [11]) and in series [9] was “no significant body weight loss” each time.
